From US10822349B2, “Macrocyclic purines for the treatment of viral infections” (JANSSEN SCIENCES IRELAND UNLIMITED COMPANY, priority 2012, dated 2020)

Columns and labels:
human TLR7 = target: T1, human TLR7 (Homo sapiens, UniProt Q9NYK1); test: TLR7 cellular reporter assay (HEK293 TLR7-NFκB-luc); assay type: cell-based; conditions: lowest effective concentration; HEK293 transiently transfected with TLR7 and NFκB-luc; 6 hours incubation
T1 construct: expressed in transfected cells; host or cells: HEK293
T1 sequence (Q9NYK1 27-1049): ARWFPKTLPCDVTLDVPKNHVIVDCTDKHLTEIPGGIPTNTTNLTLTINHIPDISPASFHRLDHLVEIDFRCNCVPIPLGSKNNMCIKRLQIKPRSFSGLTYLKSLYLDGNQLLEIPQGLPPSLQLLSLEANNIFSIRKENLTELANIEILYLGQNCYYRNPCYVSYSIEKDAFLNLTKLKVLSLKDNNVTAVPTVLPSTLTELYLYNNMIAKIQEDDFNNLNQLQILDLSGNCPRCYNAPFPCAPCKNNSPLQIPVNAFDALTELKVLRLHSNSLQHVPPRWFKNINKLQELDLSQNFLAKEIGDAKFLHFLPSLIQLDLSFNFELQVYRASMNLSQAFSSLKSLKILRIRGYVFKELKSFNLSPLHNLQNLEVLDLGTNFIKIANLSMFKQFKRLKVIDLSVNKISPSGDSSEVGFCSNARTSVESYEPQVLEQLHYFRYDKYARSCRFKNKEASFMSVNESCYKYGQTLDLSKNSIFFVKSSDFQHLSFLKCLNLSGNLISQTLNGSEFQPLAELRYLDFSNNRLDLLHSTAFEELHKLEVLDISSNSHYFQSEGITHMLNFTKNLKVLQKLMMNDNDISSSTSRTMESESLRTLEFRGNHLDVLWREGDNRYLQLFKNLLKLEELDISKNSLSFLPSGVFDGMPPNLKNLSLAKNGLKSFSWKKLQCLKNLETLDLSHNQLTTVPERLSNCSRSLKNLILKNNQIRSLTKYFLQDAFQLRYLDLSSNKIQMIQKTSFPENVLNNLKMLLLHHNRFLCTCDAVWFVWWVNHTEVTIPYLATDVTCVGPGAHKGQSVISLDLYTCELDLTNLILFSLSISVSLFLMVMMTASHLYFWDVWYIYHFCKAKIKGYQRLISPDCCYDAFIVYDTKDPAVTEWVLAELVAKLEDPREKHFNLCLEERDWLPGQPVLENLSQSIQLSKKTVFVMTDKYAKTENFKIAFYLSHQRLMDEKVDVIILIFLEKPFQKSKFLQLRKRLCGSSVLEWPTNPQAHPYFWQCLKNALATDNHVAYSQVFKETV
Procedure: The ability of compounds to activate human TLR7 and TLR8 was assessed in a cellular reporter assay using HEK293 cells transiently transfected with a TLR7 or TLR8 expression vector and NFκB-luc reporter construct. Briefly, HEK293 cells were grown in culture medium (DMEM supplemented with 10% FCS and 2 mM Glutamine). For transfection of cells in 10 cm dishes, cells were detached with Trypsin-EDTA, transfected with a mix of CMV-TLR7 or TLR8 plasmid (750 ng), NFκB-luc plasmid (375 ng) and a transfection reagent and incubated 48 hours at 37° C. in a humidified 5% CO2 atmosphere. Transfected cells were then detached with Trypsin-EDTA, washed in PBS and resuspended in medium to a density of 1.67×10^5 cells/mL. Thirty microliters of cells were then dispensed into each well in 384-well plates, where 10 μL of compound in 4% DMSO was already present. Following 6 hours incubation at 37° C., 5% CO2, the luciferase activity was determined by adding 15 μl of Steady Lite Plus substrate (Perkin Elmer) to each well and readout performed on a ViewLux ultraHTS microplate imager (Perkin Elmer). Dose response curves were generated from measurements performed in quadruplicates. Lowest effective concentrations (LEC) values, defined as the concentration that induces an effect which is at least two fold above the standard deviation of the assay, were determined for each compound.

[1] = test system: interferon production in human PBMC; test: Interferon production in human PBMC, read out on HEK-ISRE-luc reporter cells; assay type: cell-based; conditions: lowest effective concentration, PBMC supernatant after overnight incubation transferred to HEK-ISRE-luc cells; for PBMC HEK-ISRE-luc (LEC; μM): 24 hours; for minimal effective concentration: Homo sapiens, PBMC, 24 h, read-out: PBMC HEK-ISRE-luc (LEC; μM)
Procedure: Activation of human TLR7 results in robust production of interferon by plasmacytoid dendritic cells present in human blood. The potential of compounds to induce interferon was evaluated by determination of interferon in the conditioned media from peripheral blood mononuclear cells (PBMC). The presence of interferon in the samples was determined, using an interferon reporter cell line stably expressing an interferon-stimulated responsive elements (ISRE)-luc reporter construct. The ISRE element with sequence GAAACTGAAACT (SEQ ID: 1) is highly responsive to the STAT1-STAT2-IRF9 transcription factor, which becomes activated upon binding of IFN-I to the IFN receptor. Briefly, PBMCs were prepared from buffy coats of at least two donors using a standard Ficoll centrifugation protocol. Isolated PBMCs were resuspended in RPMI medium supplemented with 10% human AB serum and 2×10^5 cells/well were dispensed into 384-well plates containing compounds (70 μL total volume). After overnight incubation of the PBMCs with the compounds, 10 μL of supernatant was transferred to 384-well plates containing 5×10^3 HEK-ISRE-luc cells/well in 30 μL (plated the day before). Following 24 hours of incubation, activation of the ISRE elements was measured by assaying luciferase activity using 40 μL/well Steady Lite Plus substrate (Perkin Elmer) and measured with ViewLux ultraHTS microplate imager (Perkin Elmer). The stimulating activity of each compound on the HEK-ISRE-luc cells was reported as LEC. The LEC in turn indicates the degree of ISRE activation on transfer of a defined amount of PBMC culture medium. Recombinant interferon alfa-2a (Roferon-A) was used as a standard control compound.

SMILES	HEK293 TLR7-NFκB-luc (LEC; μM) (human TLR7) [µM]	PBMC HEK-ISRE-luc (LEC; μM) [1] [µM]	minimal effective concentration [1] [µM]
Nc1nc2nc3c1nc(O)n3Cc1cccc(n1)CC/C=C\CCO2 [Compound 46]	6.49	–	1.13
Nc1nc2nc3c1nc(O)n3CCc1cccc(c1)CCCCCO2 [Compound 83]	>25	–	2.66
Nc1nc2nc3c1nc(O)n3Cc1cccc(n1)OCC(=O)NCCCO2 [Compound 9]	0.30	–	0.098
COc1ccc2cc1OC/C=C\COc1nc(N)c3nc(O)n(c3n1)C2 [Compound 60]	0.088	0.033	–
COc1c2cccc1OC/C=C\COc1nc(N)c3nc(O)n(c3n1)C2 [Compound 62]	7.26	–	2.03
Nc1nc2nc3c1nc(O)n3Cc1ncccc1OC/C=C\CCO2 [Compound 45]	0.108	–	0.01
Nc1nc2nc3c1nc(O)n3Cc1cccc(c1)CCCCCO2 [Compound 2]	0.51	–	0.22
COc1cc2cc(c1)OCCCCOc1nc(N)c3nc(O)n(c3n1)C2 [Compound 53]	0.029	–	0.01
Nc1nc2nc3c1nc(O)n3Cc1ccc(cc1)C/C=C/CCCCO2 [Compound 30]	0.87	–	0.56
Nc1nc2nc3c1ncn3Cc1ncccc1OC/C=C\CCO2 [Compound 79]	2.34	–	1.78
COc1ccc2cc1OC/C=C\COc1nc(N)c3nc(O)n(c3n1)C2 [Compound 57]	0.08	–	0.021
Nc1nc2nc3c1nc(O)n3Cc1ncccc1/C=C\CCCCO2 [Compound 42]	2.28	–	0.5
COc1cc2cc(c1)OC/C=C\COc1nc(N)c3nc(O)n(c3n1)C2 [Compound 65]	0.038	–	0.03
Nc1nc2nc3c1nc(O)n3Cc1cccc(c1)OCCOCCN2 [Compound 13]	14.69	–	4.7
Nc1nc2nc3c1nc(O)n3Cc1cccc(c1)OC/C=C/CCC(CO)N2 (centres unmarked) [Compound 18]	0.82	–	0.056
COc1ccc2cc1Cn1c(O)nc3c(N)nc(nc31)OCCCCC2 [Compound 69]	0.2	–	0.039
Nc1nc2nc3c1nc(O)n3Cc1cc(ccn1)OC/C=C\CCO2 [Compound 37]	0.8	–	0.12
Nc1nc2nc3c1nc(O)n3Cc1cccc(c1)CCCCCN2 [Compound 31]	1.36	–	0.263
Nc1nc2nc3c1nc(O)n3CCc1cccc(c1)OC/C=C/CCO2 [Compound 86]	7.91	–	2.43
Nc1nc2nc3c1nc(O)n3Cc1ccc(nc1)OCC(=O)NCCCO2 [Compound 6]	>10	–	1.73
Nc1nc2nc3c1nc(O)n3Cc1cccc(c1)C/C=C/CCCN2 [Compound 28]	0.77	–	0.26
Nc1nc2nc3c1nc(O)n3Cc1ccccc1OCCCCO2 [Compound 76]	0.12	–	0.064
Nc1nc2nc3c1nc(O)n3Cc1cccc(c1)OC/C=C/CCO2 [Compound 27]	1.31	–	0.11
Nc1nc2nc3c1nc(O)n3Cc1cccc(n1)COCCCCO2 [Compound 24]	1.05	–	0.15
Nc1nc2nc3c1nc(O)n3Cc1ncccc1OCCCCCO2 [Compound 50]	1.19	–	0.24
Nc1nc2nc3c1nc(O)n3Cc1ccc(nc1)OCC/C=C/CCO2 [Compound 25]	20.22	–	3.61
COc1c2cccc1OCCCCOc1nc(N)c3nc(O)n(c3n1)C2 [Compound 59]	4.41	–	1.92
Nc1nc2nc3c1nc(O)n3Cc1cccc(n1)OC/C=C/CCCO2 [Compound 49]	0.21	–	0.16

Second part, led by results:

HEK293 TLR7-NFκB-luc (LEC; μM) (human TLR7) [µM]	SMILES	PBMC HEK-ISRE-luc (LEC; μM) [1] [µM]	minimal effective concentration [1] [µM]
0.067	Nc1nc2nc3c1nc(O)n3Cc1cccc(c1)C/C=C\CCO2 [Compound 17]	0.013	–
3.27	Nc1nc2nc3c1nc(O)n3Cc1cccc(c1)CCCCCCn1ccnc1-2 [Compound 4]	–	0.64
0.006	COc1ccc2cc1C/C=C/CCOc1nc(N)c3nc(O)n(c3n1)C2 [Compound 68]	–	0.0057
0.3	Nc1nc2nc3c1nc(O)n3Cc1cccc(c1)OCC/C=C/CO2 [Compound 21]	–	0.05
3.4	Nc1nc2nc3c1nc(O)n3CCc1cccc(c1)OC/C=C\CO2 [Compound 84]	–	0.51
>25	Nc1nc2nc3c1ncn3Cc1cccc(c1)OC/C=C\CO2 [Compound 55]	–	15.3
0.027	Nc1nc2nc3c1nc(O)n3Cc1cccc(c1)OC/C=C\CCO2 [Compound 26]	–	0.093
0.032	COc1ccc2cc1CCCCCOc1nc(N)c3nc(O)n(c3n1)C2 [Compound 66]	–	0.018
0.056	COc1ccc2cc1OCCCCOc1nc(N)c3nc(O)n(c3n1)C2 [Compound 56]	–	0.01
0.154	Nc1nc2nc3c1nc(O)n3Cc1cccc(c1)C/C=C\CCO2 [Compound 1]	0.081	–
0.64	Nc1nc2nc3c1nc(O)n3Cc1ccccc1C/C=C\CCO2 [Compound 48]	–	2.04
9.68	Nc1nc2nc3c1ncn3Cc1ncccc1OC/C=C/CCO2 [Compound 78]	–	> 25
